From patent publication US5516936A, “Inhibitors of kynureninase” (University of Georgia Research Foundation, Inc., priority 1993, dated 1996)
Read-outs that look alike come from different tables or passages of the source.

Columns and labels:
bacterial kynureninase [1] = conditions: cited from earlier work; for inhibition of bacterial kynureninase (in words): Tanizawa and Soda (1979)
rat renal C-S lyase = conditions: kidney slice methodology; cited from earlier work
[2] = test system: kynureninase of P. fluorescens; conditions: cited from earlier work
bacterial kynureninase [3] = conditions: Kishore (1984); cited from earlier work
Kynureninase = target: T1, Kynureninase (Pseudomonas fluorescens, UniProt P83788); test: Competitive inhibition of kynureninase by S-aryl cysteines and S-aryl cysteine sulfones; type: biochemical; conditions: for Ki: Table 1; for inhibition (in words): bacterial kynureninase; for fold decrease in Ki value: relative to unsubstituted S-phenyl-L-cysteine
T1 construct: Bacterial kynureninase was prepared from cells of Pseudomonas fluorescens; endogenous in cells; partially purified by DEAE-cellulose and ammonium sulfate
T1 sequence (P83788 1-416): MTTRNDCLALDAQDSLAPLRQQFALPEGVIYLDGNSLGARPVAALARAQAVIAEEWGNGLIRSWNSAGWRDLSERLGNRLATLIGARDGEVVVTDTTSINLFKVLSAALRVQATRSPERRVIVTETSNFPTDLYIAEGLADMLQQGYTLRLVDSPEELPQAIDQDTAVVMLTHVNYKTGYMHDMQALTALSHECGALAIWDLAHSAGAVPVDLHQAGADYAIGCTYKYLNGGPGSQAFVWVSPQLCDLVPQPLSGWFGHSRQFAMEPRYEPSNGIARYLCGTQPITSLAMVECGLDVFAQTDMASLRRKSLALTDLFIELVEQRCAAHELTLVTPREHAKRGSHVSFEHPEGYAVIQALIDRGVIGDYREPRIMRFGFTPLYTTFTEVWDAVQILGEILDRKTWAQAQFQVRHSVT
Description: Bacterial kynureninase was prepared from cells of Pseudomonas fluorescens (ATCC 11250, for example) essentially as described by .Hayaishi and Stanier (1952) J. Biol. Chem. 195:735-740. Cells were grown on a minimal medium containing 0.1% L-tryptophan as the sole carbon and nitrogen source.
From 100 1 of medium, grown for 18 h at 30° C. 230 g of wet cell paste was obtained. The cells were suspended in 1 of 0.01M potassiumphosphate, pH 7.0, and disrupted by 2 passages through a Manton-Gaulin homogenizer. After centrifugation of the cell extract for 1 h at 10000 g, the enzyme was partially purified by ion-exchange chromatography on DEAE-cellulose and ammonium sulfate precipitation.
Kynureninase activity was measured at 25° C. by following the decrease in absorbance at 360 nm (ε=-4500M^-1 cm^-1). A typical assay mixture contained 0.4 mM L-kynurenine in 0.04M potassium phosphate, pH 7.8, containing 40 μM pyridoxal-5'-phosphate, at 25° C. The reactions of S-aryl cysteines and S-aryl cysteine sulfones with kynureninase were performed using a spectrophotometric coupled assay with lactate dehydrogenase and NADH, by monitoring a decrease in absorbance due to pyruvate formation. A typical assay mixture contained 30 μl lactate dehydrogenase solution (2 mg/ml), 0.1 mM NADH, 40 μM pyridoxal-5'-phosphate, 0.04M tris.HCl buffer, pH 7.8, with varying concentrations of the compounds. The competitive inhibition of these compounds was measured by variation of L-kynurenine concentrations at several fixed values of the inhibitor. Km and Vmax values were calculated by fitting of initial rate data to the Michaelis-Menten equation with ENZFITTER (Elsevier) on a Z-286 personal computer. KI values were determined from the equation:
v=Vmax[S]/ (Km (1+[I]/Ki)+[S]

rat liver kynureninase = target: T2, rat liver kynureninase (Rattus norvegicus, UniProt P70712); conditions: Wiss and Fuchs (1950); cited from earlier work
T2 construct: host or cells: rat liver
T2 sequence (P70712 1-464): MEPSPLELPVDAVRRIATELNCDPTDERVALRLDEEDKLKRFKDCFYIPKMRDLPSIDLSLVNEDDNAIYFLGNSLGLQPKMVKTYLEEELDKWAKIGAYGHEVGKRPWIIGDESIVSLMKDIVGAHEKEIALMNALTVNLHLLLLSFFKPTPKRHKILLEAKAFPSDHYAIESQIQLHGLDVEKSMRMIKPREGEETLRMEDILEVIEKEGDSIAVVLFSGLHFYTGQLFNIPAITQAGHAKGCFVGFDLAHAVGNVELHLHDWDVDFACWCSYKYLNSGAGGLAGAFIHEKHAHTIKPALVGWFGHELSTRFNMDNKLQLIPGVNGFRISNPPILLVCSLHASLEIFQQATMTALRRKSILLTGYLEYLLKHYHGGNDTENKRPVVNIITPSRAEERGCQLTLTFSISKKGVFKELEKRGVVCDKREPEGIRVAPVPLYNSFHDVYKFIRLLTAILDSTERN

bacterial kynureninase [4] = conditions: Hayaishi (1955); cited from earlier work
[5] = competitive inhibition vs L-kynurenine, pH 7.8, 25° C., footnote 1: 0.07 is an upper limit, read-out: Ki

SMILES: CC(=O)c1ccccc1N [o-aminoacetophenone]
- inhibition of bacterial kynureninase (in words) (bacterial kynureninase [1]): inhibitors

SMILES: Nc1ccccc1C=O [o-aminobenzaldehyde]
- inhibition of bacterial kynureninase (in words) (bacterial kynureninase [1]): strongly inhibited
- Ki (bacterial kynureninase [1]; non-competitive inhibition): 6.5 µM

SMILES: N[C@@H](CSc1ccc([N+](=O)[O-])cc1)C(=O)O [S-(4-nitrophenyl)-L-cysteine]
- inhibition of C-S lyase (in words) (rat renal C-S lyase): inhibit

SMILES: NC(=O)C[C@H](N)C(=O)O [L-asparagine]
- substrate of kynureninase (in words) ([2]; Tanizawa and Soda (1979)): not substrates

SMILES: N[C@@H](CSc1c([N+](=O)[O-])cccc1[N+](=O)[O-])C(=O)O [S-(2,6-dinitrophenyl)-L-cysteine]
- inhibition of C-S lyase (in words) (rat renal C-S lyase): inhibit

SMILES: CC(=O)OC[C@H](N)C(=O)O [o-acetyl-L-serine]
- inactivation of kynureninase (in words) (bacterial kynureninase [3]): inactivated kynureninase
- reaction with kynureninase (in words) (bacterial kynureninase [3]): react with kynureninase to give pyruvate and ammonia

SMILES: N[C@@H](CSC(=O)c1ccccc1)C(=O)O [S-benzoyl-L-cystsine]
- substrate of kynureninase (in words) ([2]; Tanizawa and Soda (1979)): not substrates

SMILES: N[C@@H](CSc1ccccc1)C(=O)O [S-phenyl-L-cysteine]
- Ki (Kynureninase; [5]): 700 µM
- Ki (Kynureninase; read-out: Ki value): 700 µM
- inhibition (in words) (Kynureninase): very weak inhibitor

SMILES: O=Cc1ccccc1[N+](=O)[O-] [o-nitrobenzaldehyde]
- inhibition of bacterial kynureninase (in words) (bacterial kynureninase [1]): inhibitors

SMILES: N[C@@H](CC(=O)c1ccccc1[N+](=O)[O-])C(=O)O [β-(o-nitrobenzoyl)-L-alanine]
- reaction with rat liver kynureninase to produce alanine (in words) (rat liver kynureninase): did not
- substrate of bacterial kynureninase (in words) (bacterial kynureninase [4]): do not react with bacterial kynureninase

SMILES: N[C@@H](CC(=O)c1cccc(O)c1)C(=O)O [β-(m-hydroxybenzoyl)-L-alanine]
- substrate of bacterial kynureninase (in words) (bacterial kynureninase [4]): do not react with bacterial kynureninase

SMILES: N[C@@H](CC(O)c1ccccc1)C(=O)O (stereo partly drawn) [γ-phenyl-L-homoserine]
- reaction with rat liver kynureninase to produce alanine (in words) (rat liver kynureninase): reacted with rat liver kynureninase

SMILES: CC(=O)CC(N)C(=O)O (centres unmarked) [2-aminolevulinic acid]
- reaction with rat liver kynureninase to produce alanine (in words) (rat liver kynureninase): reacted with rat liver kynureninase

SMILES: N[C@@H](CS(=O)(=O)c1ccc([N+](=O)[O-])cc1)C(=O)O
- Ki (Kynureninase; [5]): 12 µM

SMILES: Nc1ccc(S(=O)(=O)C[C@H](N)C(=O)O)cc1
- Ki (Kynureninase; [5]): 8.5 µM

SMILES: N[C@@H](COS(=O)(=O)O)C(=O)O [L-serine O-sulfate]
- inactivation of kynureninase (in words) (bacterial kynureninase [3]): inactivated kynureninase
- reaction with kynureninase (in words) (bacterial kynureninase [3]): react with kynureninase to give pyruvate and ammonia

SMILES: CC(=O)N[C@@H](CSc1c([N+](=O)[O-])cccc1[N+](=O)[O-])C(=O)O [N-acetyl-S-(2,6-dinitrophenyl)-L-cysteine]
- inhibition of C-S lyase (in words) (rat renal C-S lyase): inhibit

SMILES: N[C@@H](CS(=O)(=O)c1ccccc1[N+](=O)[O-])C(=O)O
- Ki (Kynureninase; [5]): 23 µM

SMILES: N[C@@H](CC(=O)c1ccccc1O)C(=O)O [β-(o-hydroxybenzoyl)-L-alanine]
- substrate of bacterial kynureninase (in words) (bacterial kynureninase [4]): substrates

SMILES: Nc1ccccc1S(=O)(=O)C[C@H](N)C(=O)O [S-(2-aminophenyl)-L-cysteine sulfone]
- Ki (Kynureninase; [5]): ≤ 0.07 µM
- Ki (Kynureninase; read-out: Ki): ~0.07 µM
- inhibition (in words) (Kynureninase): considerably more potent inhibitor of kynureninase

SMILES: Nc1ccc(C(=O)C[C@H](N)C(=O)O)cc1 [β-(p-aminobenzoyl)-L-alanine]
- substrate of bacterial kynureninase (in words) (bacterial kynureninase [4]): do not react with bacterial kynureninase

SMILES: CC(O)CC(N)C(=O)O (stereo not drawn) [α-amino-γ-hydroxypentanoic acid]
- reaction with rat liver kynureninase to produce alanine (in words) (rat liver kynureninase): reacted with rat liver kynureninase

SMILES: Nc1ccccc1C(=O)C[C@@H](N)C(=O)O [D-kynurenine]
- substrate of kynureninase (in words) ([2]; Tanizawa and Soda (1979)): not substrates

SMILES: CC(O)C[C@H](N)C(=O)O (stereo partly drawn) [γ-methyl-L-homoserine]
- reaction with rat liver kynureninase to produce alanine (in words) (rat liver kynureninase): reacted with rat liver kynureninase

SMILES: Nc1ccc(O)cc1C(=O)C[C@H](N)C(=O)O [5-hydroxy-L-kynurenine]
- substrate of kynureninase (in words) ([2]; Tanizawa and Soda (1979)): substrates
- substrate of bacterial kynureninase (in words) (bacterial kynureninase [4]): substrates

SMILES: O=C(O)CCC(=O)c1ccccc1 [β-benzoylpropanoic acid]
- substrate of bacterial kynureninase (in words) (bacterial kynureninase [4]): do not react with bacterial kynureninase

SMILES: Cc1ccc(N)c(C(=O)C[C@H](N)C(=O)O)c1 [5-methyl-L-kynurenine]
- substrate of kynureninase (in words) ([2]; Tanizawa and Soda (1979)): substrates

SMILES: Nc1ccc(SC[C@H](N)C(=O)O)cc1
- Ki (Kynureninase; [5]): 140 µM

SMILES: N[C@@H](CC(=O)c1ccccc1)C(=O)O [β-benzoyl-L-alanine]
- substrate of kynureninase (in words) ([2]; Tanizawa and Soda (1979)): substrates
- Km ([2]; bacterial kynureninase): 160 µM
- reaction with rat liver kynureninase to produce alanine (in words) (rat liver kynureninase): reacted with rat liver kynureninase
- substrate of bacterial kynureninase (in words) (bacterial kynureninase [4]): substrates

SMILES: Nc1ccccc1C(=O)C[C@H](N)C(=O)O [L-kynurenine, α,2-diamino-γ-oxobenzenebutanoic acid]
- Km ([2]; Tanizawa and Soda (1979)): 35 µM
- reaction with rat liver kynureninase to produce alanine (in words) (rat liver kynureninase): reacted with rat liver kynureninase

SMILES: N[C@@H](CS(=O)(=O)c1ccccc1)C(=O)O [S-phenyl-L-cysteine sulfone]
- Ki (Kynureninase; [5]): 3.9 µM
- Ki (Kynureninase; read-out: Ki value): 3.9 µM
- fold decrease in Ki value (Kynureninase): 180 fold

SMILES: Nc1c(O)cccc1C(=O)C[C@H](N)C(=O)O [3-hydroxy-L-kynurenine, α,2-diamino-3-hydroxy-γ-oxobenzenebutanoic acid]
- Km ([2]; Tanizawa and Soda (1979)): 200 µM
- substrate of kynureninase (in words) ([2]; Tanizawa and Soda (1979)): substrates
- reaction with rat liver kynureninase to produce alanine (in words) (rat liver kynureninase): reacted with rat liver kynureninase
- substrate of bacterial kynureninase (in words) (bacterial kynureninase [4]): substrates

SMILES: Nc1ccc(F)cc1C(=O)C[C@H](N)C(=O)O [5-fluoro-L-kynurenine]
- substrate of kynureninase (in words) ([2]; Tanizawa and Soda (1979)): substrates

SMILES: Nc1ccccc1C(O)C[C@H](N)C(=O)O (stereo partly drawn) [dihydrokynurenine, α,2-diamino-γ-hydroxybenzenebutanoic acid]
- Km ([2]; Tanizawa and Soda (1979)): 67 µM
- Vmax / reactivity relative to L-kynurenine ([2]; Tanizawa and Soda (1979)): about 65%
- substrate of kynureninase (in words) ([2]; Tanizawa and Soda (1979)): substrate

SMILES: N[C@@H](CC(=O)c1ccccc1NC=O)C(=O)O [N'-formyl-L-kynurenine]
- substrate of kynureninase (in words) ([2]; Tanizawa and Soda (1979)): substrates
- Km ([2]; bacterial kynureninase): 2200 µM
- substrate of bacterial kynureninase (in words) (bacterial kynureninase [4]): not a substrate

SMILES: Nc1ccccc1C(=O)CCC(=O)O [β-(o-aminobenzoyl)propanoic acid]
- substrate of bacterial kynureninase (in words) (bacterial kynureninase [4]): do not react with bacterial kynureninase

SMILES: COc1cccc(C(=O)C[C@H](N)C(=O)O)c1N [3-methoxy-L-kynurenine]
- substrate of bacterial kynureninase (in words) (bacterial kynureninase [4]): do not react with bacterial kynureninase

SMILES: Nc1cc(F)ccc1C(=O)C[C@H](N)C(=O)O [4-fluoro-L-kynurenine]
- substrate of kynureninase (in words) ([2]; Tanizawa and Soda (1979)): substrates

SMILES: Nc1ccccc1SC[C@H](N)C(=O)O [S-(2-aminophenyl)-L-cysteine]
- Ki (Kynureninase; [5]): 2.5 µM
- Ki (Kynureninase; read-out: Ki value): 2.2 µM
- fold decrease in Ki value (Kynureninase): 318 fold

SMILES: O=Cc1ccccc1 [benzaldehyde]
- inhibition of bacterial kynureninase (in words) (bacterial kynureninase [1]): inhibitors

SMILES: N[C@@H](CCl)C(=O)O [β-chloro-L-alanine]
- inactivation of kynureninase (in words) (bacterial kynureninase [3]): inactivated kynureninase
- reaction with kynureninase (in words) (bacterial kynureninase [3]): react with kynureninase to give pyruvate and ammonia

SMILES: N#CC[C@H](N)C(=O)O [β-cyano-L-alanine]
- inactivation of kynureninase (in words) (bacterial kynureninase [3]): inactivated kynureninase
- reaction with kynureninase (in words) (bacterial kynureninase [3]): react with kynureninase to give pyruvate and ammonia
